Laboratory results reported in patent publication US8084610B2, “Compositions and methods for detecting and treating tumors containing acidic areas” (priority 2006, dated 2011).
Each block holds one compound with its values, some of them ahead of it.

Columns and labels:
[1] = Titration assay of sodium salts with 5 M HCl (pKa / effective pKa)
Description: Typically new structures that may be suitable as advanced pH-switch components are first assessed for their pKa value in normal saline. This entails preparing the sodium salt form of the structure and dissolving it at a concentration of 20 milliMolar in 15 ml of 0.15 Molar NaCl (deareated to remove CO2). […] A plot of pH versus volume of added HCl affords the effective pKa value. It is also desirable to carry out this same titration in methanol/water (1:1 by vol) in order to get an estimate of the pKa value independent of insolubility effects.
The compound in FIG. 12a was prepared by reacting camphoric anhydride with dimethylamine. The compound in FIG. 12b was prepared by reacting camphoric anhydride with ethylamine. The sodium salts of compounds shown in FIG. 12a (designed to form an internal acid-specific H-bond) and 12b (designed to form non-acid-specific H-bonds) were titrated in aqueous solution.
The two compounds in FIG. 15 were prepared by reacting the respective anhydrides with dimethylamine, and then the sodium salts titrated in methanol/water, 1:1 by volume—in order to preclude insolubility effects impacting the titration curve.
The methyl ester of isonipocotic acid was alkylated with bromopropane and then the resultant tertiary amine oxidized to the N-oxide with meta-Chlorobenzoylperoxide. Finally, the ester was cleaved with aqueous sodium hydroxide to give structure iii in FIG. 16b. This product in its sodium salt form was titrated in water.

tumors = details: tumor-bearing mice; reduction of about 0.3 pH units in the tumors; cited from earlier work

- first derivative of titration plot, minimum attributed to N-oxide moiety (pH) ([1]; sodium salt titrated in water): ~4.0
- first derivative of titration plot, other minimum (pH), attributed to internal low-barrier H-bond ([1]; sodium salt titrated in water): ~5.6
Structure (SMILES): CCC[N+]1([O-])CCC(C(=O)O)CC1 (stereo not shown) [structure iii in FIG. 16b, N-oxide of N-propylisonipocotic acid]

Structure (SMILES): O=C(O)CCCc1ccc(N(CCCl)CCCl)cc1 [Chlorambucil]
- improvement in tumor growth delay (tumors): 1.7 fold

Structure (SMILES): CN(C)C(=O)C=CC(=O)O [FIG. 14b]
- pKa value (mid-point of the transition between salt and acid) ([1]; sodium salt titrated with HCl in water / aqueous solution): below 3.0
